In test [1] the test system is non-small cell lung cancer (NSCLC) cell lines (H2170, A549, Calu-1). Nature of the test: Isotope tracing ([U-13C] glucose or [U-13C] glutamine) of TCA cycle metabolites in NSCLC cell lines. Format: cell-based, human. Particulars: 50 μM for 24 h. The procedure:
(§1) C2C12 cells were maintained at sub-confluence as myoblasts unless otherwise noted. All myoblast experiments were performed in high glucose DMEM supplemented with 10% FBS and 4 mM L-glutamine. For differentiation into myotubes, C2C12 cells were grown to 100% confluence for three days and then washed with PBS and changed into differentiation medium composed of high glucose DMEM supplemented with 2% horse serum (catalog no. 26050070; Gibco), 4 mM L-glutamine and 100× insulin-transferrin-selenium-ethanolamine (ITS-X; catalog no. 51500056; Gibco) for the indicated length of time (3, 5 or 7 days). Differentiation medium was refreshed every day. For non-small cell lung cancer (NSCLC) cell line studies, H2170, A549, and Calu-1 cell lines were thawed and passaged in RPMI-1640 supplemented with 10% FBS before being transitioned to high glucose DMEM supplemented with 10% FBS and 4 mM L-glutamine for several passages prior to experiments. 143B cells were maintained in high glucose DMEM supplemented with sodium pyruvate, 10% FBS and penicillin-streptomycin. All cells routinely tested negative for Mycoplasma.
For mass spectrometric analyses in C2C12 myoblasts and NSCLC cell lines, cells were seeded in six-well plates and medium was changed 24 h later. […] 48 h prior to harvest, myoblasts were supplemented with 1 μg/mL doxycycline to induce shRNA expression. For analysis of myotubes, cells seeded in six-well plates were grown to 100% confluence for 3 days, washed with PBS and changed to differentiation medium that was refreshed every day for 7 days. On the final day of differentiation, cells were washed with PBS and changed to experimental medium described above. For analysis of C2C12 myotube genetic hairpin lines, cells were processed as described above but medium was supplemented with 1 μg/mL doxycycline for the final four days of differentiation to induce shRNA expression. ESCs and NSCLC lines treated with inhibitors were processed as described above but medium was supplemented with DMSO, 50 μM BMS-303141 (catalog no. SML0784; Sigma), 5 mM dichloroacetate (catalog no. 3447795; Sigma) or 10 μM UK-5099 (catalog no. 4186; Tocris) for 24 h prior to harvest. At harvest, metabolites were extracted with 1 mL ice-cold 80% methanol containing 2 μM deuterated 2-hydroxyglutaratc (d-2-hydroxyglutaric-2,3,3,4,4-d5 acid (d5-2HG)). […]
(§2) Gas chromatography-mass spectrometry. […] Samples were analyzed using an Agilent 7890A Gas Chromatograph coupled to an Agilent 5977C mass selective detector. […] Peaks representing compounds of interest were extracted and integrated using the MassHunter software v.B.08 (Agilent Technologies) and then normalized to both the internal standard (d5-2HG) peak area and protein content of triplicate samples as determined by bicinchoninic acid assay (Thermo Fisher Scientific). […]

Test [2] deals with ASNase-expressing 143B human osteosarcoma cells. Nature of the test: [U-13C] asparagine tracing in ASNase-expressing 143B cells. Conditions: 50 μM for 24 h (FIGS. 6E and 6F). Format: cell-based. The procedure: 143B cells were plated in six-well plates; 24 h later, media was changed to DMEM supplemented with 10% dialyzed FBS, 1 mM asparagine and DMSO or 50 μM BMS-303141. After 20 h, media was changed to DMEM supplemented with 10% dialyzed FBS, 1 mM [U-^13C]asparagine and DMSO or 50 μM BMS-303141. Cells were extracted with 300 μL 80% methanol containing Valine-D8 as an internal control. 143B extracts were further processed by LCMS, described below.
Liquid chromatography-mass spectrometry.

The subject of test [3] is mouse embryonic stem cells (ESCs). Nature of the test: [U-13C] glucose tracing of TCA cycle metabolites in mouse embryonic stem cells. Format: cell-based. The protocol: Metabolic analyses. […] For mass spectrometric analyses in C2C12 myoblasts and NSCLC cell lines, cells were seeded in six-well plates and medium was changed 24 h later. […] 48 h prior to harvest, myoblasts were supplemented with 1 μg/mL doxycycline to induce shRNA expression. For analysis of myotubes, cells seeded in six-well plates were grown to 100% confluence for 3 days, washed with PBS and changed to differentiation medium that was refreshed every day for 7 days. On the final day of differentiation, cells were washed with PBS and changed to experimental medium described above. For analysis of C2C12 myotube genetic hairpin lines, cells were processed as described above but medium was supplemented with 1 μg/mL doxycycline for the final four days of differentiation to induce shRNA expression. ESCs and NSCLC lines treated with inhibitors were processed as described above but medium was supplemented with DMSO, 50 μM BMS-303141 (catalog no. SML0784; […] Sigma) or 10 μM UK-5099 (catalog no. 4186; Tocris) for 24 h prior to harvest. […] After overnight incubation at -80° C., lysates were collected and centrifuged at 21,000 g for 20 min to remove protein. All extracts were further processed by LCMS (for analysis of NADH, lactate and pyruvate (deuterium labeling and lactate/pyruvate ratio) and succinate (deuterium labeling only) or GCMS (for all other analyses) as described below. Gas chromatography-mass spectrometry. […] Metabolites were further derivatized by adding 80 μl of N-methyl-N-(trimethylsilyl) trifluoroacetamide+1% TCMS (Thermo Fisher Scientific) and 70 μl ethyl acetate (Sigma-Aldrich) and then incubated at 37° C. for 30 min. Samples were analyzed using an Agilent 7890A Gas Chromatograph coupled to an Agilent […] mass selective detector. The gas chromatograph was operated in splitless injection mode with constant helium gas flow at 1 ml min^-1; 1 μl of derivatized metabolites was injected onto an HP-5 ms column and the gas chromatograph oven temperature ramped from 60 to 290° C. for 25 min. Peaks representing compounds of interest were extracted and integrated using the MassHunter software v.B.08 (Agilent Technologies) and then normalized to both the internal standard (d5-2HG) peak area and protein content of triplicate samples as determined by bicinchoninic acid assay (Thermo Fisher Scientific). Steady-state metabolite pool levels were derived by quantifying the following ions: d5-2HG, 354 m/z; αKG, 304 […]; citrate, 465 m/z; fumarate, 245 m/z; malate, 335 m/z; and succinate, 247 m/z. All peaks were manually inspected and verified relative to known spectra for each metabolite. Enrichment of [^13C] or [^2H] was assessed by quantifying the abundance of the following ions: aspartate, 334-346 m/z; citrate, 465-482 m/z; fumarate, 245-254 m/z; and malate, 335-347 m/z. […]

A further test deals with Rex1::GFPd2 ESCs. Kind of test: Exit from naïve pluripotency, Rex1::GFPd2 reporter analysis. The test is classed as cell-based, mouse. Conditions: 2i/LIF withdrawal for 40 h; 50 μM (FIG. 4I). The procedure: 2i/LIF-cultured ESCs were seeded at least 24 h prior to being washed with PBS and changed into serum-free maintenance medium without 2i or LIF at the indicated time before harvest (12, 24 or 40 h). Unless otherwise noted, cells were adapted to serum/LIF+2i culture prior to exit from naïve pluripotency.
Rex1::GFPd2 analysis. On the day of analysis, cells were trypsinized and resuspended in FACS buffer (PBS+2% FBS+1 mM EDTA) containing 4,6-diamidino-2-phenylindole (DAPI, 1 μg/mL). […] Viable cells were those excluding DAPI. Rex1::GFPd2 expression was measured by GFP mean fluorescence intensity (MFI) and quantified using FCS Express v7.0.5 or FlowJo v10.8.0.

For another test, the system named is C2C12 myoblasts. Kind of test: [U-13C] glucose tracing of TCA cycle metabolites in C2C12 myoblasts. Format: cell-based, mouse. The protocol: as §1, with “143B cells were maintained in high glucose DMEM supplemented with sodium pyruvate, 10% FBS and penicillin-streptomycin. All cells routinely tested negative for Mycoplasma.” left out
as §2

Test [4] concerns Acly-edited ESCs. Particulars: 2i/LIF withdrawal for 40 h; 5 mM sodium acetate (FIG. 12F). The protocol: Viability assays. Serum/LIF+2i-adapted ESCs were seeded at a density of 24,000 cells per well of a 24-well plate in triplicate or quadruplicate. 24 h later, cells were washed with PBS and changed into either fresh scrum/LIF+2i medium or medium containing a 1:1 mix of glutamine-free DMEM and Neurobasal medium including N-2 supplement, B-27 supplement, 2-mercaptoethanol and 2 mM L-glutamine for 40 h. Cells were evaluated for propidium iodide (PI) on an LSRFortessa flow cytometer using FACSDiva software v8.0 (BD Biosciences). Analysis of PI exclusion was performed with FCS Express v.7.05 or FlowJo v10.8.0.

The subject of test [5] is control and Acly-edited ESCs. The protocol: Quantification of gene expression. RNA was isolated from six-or twelve-well plates using TRIzol (Invitrogen) according to the manufacturer's instructions and 200 ng RNA was used for complementary DNA (cDNA) synthesis using the iScript cDNA Synthesis Kit (Bio-Rad). Quantitative real-time PCR analysis was performed in technical triplicate using QuantStudio 5 or 6 Flex (Applied Biosystems) with Power SYBR Green Master Mix (Thermo Fisher Scientific). All data were generated using cDNA from 3 independent wells for each condition. Actin was used as an endogenous control for all experiments. See Supplementary Table 1 for qRT-PCR primer sequences.

Test [6] deals with control and Acly-edited ESCs. Particulars: 2i/LIF withdrawal for 40 h with 5 mM sodium acetate, reseeded into 2i and LIF (FIG. 12K). From the text: Colony formation assay. […] Medium was refreshed every 3 days.
Test [7] deals with Acly-edited ESCs. Particulars: 2i/LIF withdrawal for 40 h, 5 mM sodium acetate (FIG. 12E).
From the text: Western blotting. Protein lysates were extracted in 1×RIPA buffer (Cell Signaling Technology), separated by SDS-polyacrylamide gel electrophoresis and transferred to nitrocellulose membranes (Bio-Rad). For histone blots, cell pellets were flash frozen in ethanol and resuspended in Laemmli buffer for sonication. Samples were mixed with 5% BME and 0.01% bromophenol blue prior to identical separation as for protein lysates. Membranes were blocked in 3% milk in Tris-buffered saline with 0.1% Tween 20 (TBST) or 5% BSA in TBST and incubated at 4° C. with primary antibodies overnight. After TBST washes the next day, membranes were incubated with horseradish peroxidase-conjugated secondary antibodies for at least 2 h, incubated with enhanced chemiluminescence (Thermo Fisher Scientific) and imaged with an SRX-101A X-ray Film Processor (Konica Minolta). […]
The subject of test [8] is control and Acly-edited ESCs. Conditions: labeled acetate, 5 mM; 40 h of 2i/LIF withdrawal (FIG. 12D).
Method: Fatty acid analyses. To analyze fatty acids in scrum/LIF+2i-cultured ESCs undergoing exit from pluripotency, ESCs were seeded in maintenance medium in six-well plates overnight. The next day, cells were washed with PBS and changed into medium containing a 1:1 mix of glutamine-free DMEM and Neurobasal medium including N-2 supplement, B-27 supplement, 2-mercaptoethanol and 2 mM L-glutamine. […] At harvest, lysates were collected in PBS and centrifuged at 6,800 g for 5 min to pellet cells. To isolate fatty acids, cell pellets were resuspended in 400 μl HPLC grade methanol followed by 800 μl HPLC grade chloroform and samples were vortexed for 10 min at 4° C. 300 μl HPLC grade water then added to induce phase separation. 800 μl of the bottom chloroform layer was moved to a new tube and lyophilized. Dried samples were saponified by resuspending in 1 ml of 80% methanol with 0.3 M KOH and heating at 80° C. for 1 h in a glass vial. […]
Liquid chromatography-mass spectrometry. […] Metabolite quantitation was performed using a Q Exactive HF-X Hybrid Quadrupole-Orbitrap Mass Spectrometer equipped with an Ion Max API source and H-ESI II probe, coupled to a Vanquish Flex Binary UHPLC system (Thermo Scientific). […] Metabolites were detected over mass range of 70-1050 m/z in full scan positive mode, or SIM in positive mode using a quadrupole isolation window of 0.7 m/z. […]
The subject of a further test is ESC. Particulars: previous reports (ref 39); cited from earlier work.
[9] abbreviates: [U-13C] glucose, three NSCLC cell lines (FIG. 6B).

The values that follow come from patent US20240392239A1, “METHODS FOR MODULATING CELL PLURIPOTENCY AND SELF-RENEWAL PROPERTY” (Memorial Sloan-Kettering Cancer Center, priority 2021, published 2024).

The structures appear in SMILES notation.

For `COc1ccc(-c2ccccc2)cc1NS(=O)(=O)c1cc(Cl)cc(Cl)c1O` [BMS-303141], the “mal+2/cit+2 ratio” value in test [1] ([U-13C] glucose, three NSCLC cell lines (FIG. 1E)) is “increased”. Besides, in test [1] (setting [9]), the “fraction of citrate m+2” value is recorded as “only a minor effect” and the “proportion of malate containing two labeled carbons (malate m+2)” value was “increased”. In addition, in [1] ([U-13C] glutamine, three NSCLC cell lines (FIG. 6C)), the glutamine anaplerosis result is listed as “did not uniformly affect”. Further, in test [2], the “ratio of cit+2/cit+4” value was “significantly increased”. Moreover, the “decrease in enrichment of the m+2 isotopologue of malate relative to citrate (Mal+2/Cit+2)” value in test [3] ([U-13C] glucose, serum/LIF ESCs, 50 μM for 24 h (FIG. 2B)) is given as “mitigated”. Further, in the test with Rex1::GFPd2 ESCs, the “downregulation of Rex1::GFPd2 reporter activity following 2i/LIF withdrawal” value was “almost completely prevented”.
Turning to `N#C/C(=C\c1cn(-c2ccccc2)c2ccccc12)C(=O)O` [UK-5099], the “incorporation of glucose-derived carbons into TCA cycle metabolites” value in test [3] (ESCs, 10 μM UK-5099 (MPCi) for 24 h (FIG. 10E)) is recorded as “reduced”; with C2C12 myoblasts (10 μM UK-5099 (MPCi) for 24 h (FIG. 10C)), “reduced”. The “mal+2/cit+2 ratio” value in [3] (ESCs, 10 μM UK-5099 (MPCi) for 24 h (FIG. 10F)) is “repressed”; with C2C12 myoblasts (10 μM UK-5099 (MPCi) for 24 h (FIG. 10D)) it was “repressed”.
On to `CC(=O)[O-].[Na+]` [acetate, sodium acetate], for which the “processivity (malate m+2/citrate m+2 ratio)” value in test [3] (S/L-cultured ESCs, 5 mM sodium acetate for 24 h (FIGS. 15A-15D)) is given as “enhances”. For the same compound, the “decline in viability observed in Acly-edited clones” value in the test with Acly-edited ESCs [4] is recorded as “only minimally rescued”. For the same compound, the “markers of naïve pluripotency” value in [5] (2i/LIF withdrawal for 40 h, 5 mM sodium acetate (FIGS. 12I-12J)) is on record as “tended to increase”. For the same compound, in [5] (Acly-edited ESCs, 5 mM sodium acetate, qRT-PCR, Rex1::GFPd2 MFI and AP-positive colonies (FIGS. 12I-12K)), the “effects of ACL loss on exit from pluripotency” value is “does not reverse”. The “colony formation ability (AP-positive colonies)” value in test [6] is reported as “tended to increase”. Moreover, in the test with Acly-edited ESCs [7], the histone acetylation result was “restored”. For the same compound, in test [8], the “de novo lipid synthesis (fractional labeling of palmitate)” value is given as “contributed”. The ESC self-renewal entry with ESC is on record as “promotes”.
